# In the METLIN SMRT retention time set (Domingo-Almenara et al. 2019):
# Assay: gradient 5% acetonitrile 3 min, to 50% in 2 min, to 85% in 15 min, held 3 min, 100 µL/min
# Conditions: column: Zorbax Extend-C18 2.1 x 50 mm; eluents: water / acetonitrile, 0.1% formic acid
# In short: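 Using water and acetonitrile that each contained 0.1% formic acid, mixtures of ~100 pure standards were separated at 100 μL/min on a Zorbax Extend-C18 column (2.1 × 50 mm, 1.8 μm). The HPLC fed a quadrupole time-of-flight mass spectrometer working in positive and negative ionization mode, with dead and dwell volumes of 40 μL and 900 μL. Data were acquired over 3 months. Retention time was read from computationally picked adduct peaks after manual inspection of each.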
row,Compound,RP-LC retention time [s]
1,COc1cccc(-c2noc(Cc3nnc(-c4ccc(C)c(F)c4)o3)n2)c1OC,1010
2,O=C(Cn1ccc2ccccc21)NCCn1ncccc1=O,625
3,CCCN(CC1CCOC1)C(=O)Nc1ccc(C(F)(F)F)cc1 (centres undefined),908
4,Cc1nc(N2CCOCC2)c2c(C(=O)Nc3ccc(Br)cc3F)c(C)oc2n1,976
5,COc1ccccc1NC(=O)Cn1nc2cc(C)nc(Nc3ccccc3)n2c1=O,1020
6,COc1cc(NC(=O)N2CCC(N3CCN(Cc4ccccc4)C3=O)CC2)cc(OC)c1,804
7,COc1ccccc1CNC(=O)C1CCN(Cc2cn(C)c3ccc(Cl)cc23)CC1,714
8,COCCN1CC2(CCN(S(=O)(=O)c3cc(F)cc(F)c3)CC2)C1c1ccccc1 (centres undefined),718
9,CCOCc1nc(C2CCCN(C(=O)C3(c4ccccc4)CC3)C2)no1 (centres undefined),873
10,Cn1ncc2c3ccccc3n(CC(=O)N3CCN(C(=O)c4ccco4)CC3)c2c1=O,668
11,CCN1CCC2(CC1)OC(=O)C(C)=C2C(=O)NCc1ccc(Cl)cc1,643
12,Cc1cccc(CNC(=O)CN2CCN(Cc3ccccc3)C2=O)c1,808
13,Clc1ccc(-c2noc3ncnc(N4CCN(c5ccccn5)CC4)c23)cc1,697
14,CN1C(=O)c2ccccc2Oc2ccc(C(=O)NC3CCCCCC3)cc21,958
15,Cc1cc(C)n2nc(SCC(=O)N(C)c3ccccc3)nc2n1,705
16,COc1nc2ccccc2nc1N1CCCC(C(=O)Nc2cc(F)ccc2F)C1 (centres undefined),1200
17,Cc1nc(-c2cn(C)c3ncccc23)sc1C(=O)Nc1ccc(Cl)cc1,1060
18,COc1ccc(CCC(=O)NC(C)C(=O)N2CCN(c3ccccn3)CC2)cc1 (centres undefined),606
19,COc1ccc(NC(=O)c2nnc(COCC(=O)N3CCN(c4ccccn4)CC3)s2)cc1,610
20,COCc1nc(-c2ccc(OC3CCN(C(=O)C4(c5ccc(OC)cc5)CC4)C3)cc2)no1 (centres undefined),896
21,Nc1nnc(-c2ccc(Br)cc2)o1,647
22,Cn1cnc(C(=O)N2CC(c3nc(CCOCC4CCOCC4)no3)C2)c1,579
23,O=C(C1CCN(S(=O)(=O)N2CCCC2)CC1)N1CCN(Cc2noc3ccccc23)CC1,671

row,Compound,RP-LC retention time [s]
1,CC(=O)N1C[C@@H]2CCCN3CCC[C@@H]([C@H]23)[C@H]1CCCC(=O)NCC(C)C,577
2,CCn1ccc(C(=O)NC2CCN(c3nnc4ccc(Cl)cn34)CC2)n1,581
3,CC(NC(=O)c1cn(-c2cc(-c3nc(C4CC4)no3)ccn2)cn1)c1ccccc1 (centres undefined),981
4,CC(C)(CO)c1cc2cc(NC(=O)C3(c4ccc5c(c4)OC(F)(F)O5)CC3)c(F)cc2n1C[C@@H](O)CO,1000
5,Cn1cc(-c2cc3n(n2)CCCN3C(=O)CCC(=O)N2CCCCCC2)c2ccccc21,837
6,COc1ccc(Nc2ncccc2S(N)(=O)=O)cc1OC,666
7,O=C1C[C@@H](c2ccc(O)c(O)c2)Oc2cc(O[C@H]3O[C@@H](CO)[C@H](O)[C@@H](O)[C@@H]3O)cc(O)c21,723
8,O=C(Nc1ccc(C(=O)N2CCC(C(=O)NC3CCCCCC3)CC2)cc1)c1ccccc1Cl,839
9,CCCN(c1ccccc1F)S(=O)(=O)c1ccc2c(c1)N(C(C)=O)CCCS2,993
10,COc1ccc(NC(=O)N2CCC3(CC2)NC(=O)c2ccc(F)cc2N3C)cc1,727
11,O=C(Nc1ccc(F)cc1)c1csc(-c2ccc(N3CCCC3)nc2)n1,743
12,COc1ccc(OCc2noc(CNC(=O)Cn3cnc4ccccc43)n2)cc1,592
13,COc1ccc(S(=O)(=O)N2CCC(OCCOCc3ccccc3)CC2)cc1,1050
14,COc1cccc(-c2csc(Cc3nc(-c4cccs4)no3)n2)c1,1020
15,Cc1ccc(-n2ccc(=O)c(-c3nc(-c4ccccc4C)no3)n2)cc1C,1060
16,CCOc1cccc(-c2noc(Cn3ccnc3)n2)c1,635
17,COc1ccc(NC(=O)N2CCCC2c2nc(-c3cccc(F)c3)no2)cc1 (centres undefined),842
18,O=C1CC(c2cc(F)cc(F)c2)Cc2nc(N3CCN(c4ccccc4)CC3)ncc21 (centres undefined),1270
19,CCNc1cc(N2CCCC(CCC(=O)NC(C)c3cn(C)nc3C)C2)ncn1 (centres undefined),592
20,COc1ccc(CN2CC(C(=O)N3CCCN(c4cc(=O)n(C)c(=O)n4C)CC3)CC2=O)cc1 (centres undefined),629
21,CCN1CCN(CCCNC(=O)CC2CCN(C(=O)c3[nH]c(C)c(C)c3C)CC2)CC1,578
22,CC(C)NC(=O)c1cc(C(C)(C)C)[nH]n1,710
23,COCCC(=O)N1CCC(N2C(=O)C(OC)C23CCOCC3)CC1 (centres undefined),555

row,Compound,RP-LC retention time [s]
1,COc1ccc(C2(CNC(=O)C(=O)NCC3COc4ccccc4O3)CCOCC2)cc1 (centres undefined),899
2,CCc1nn2c(CNC(=O)c3ccc(F)c(Cl)c3)c(C)nc2s1,710
3,O=C(Cc1c(F)cccc1Cl)Nc1cnn(-c2ncc(N3CCCC3)cn2)c1,771
4,Cc1ccn2c(Nc3ccc4c(c3)OCO4)c(-c3ccc(Cl)cc3)nc2c1,736
5,COC(=O)c1cnc(N2CCN(c3cccc(C)c3)C(C)C2)c2ccccc12 (centres undefined),1040
6,COc1ccc(NC(=O)c2cc(C)n3nc(-c4ccco4)cc3n2)cc1OC,933
7,COc1cccc(C2(C(N)=O)CC2)c1,688
8,COc1ccccc1OCC(=O)NCc1ccsc1,747
9,Cc1sc(-c2nnc(C(=O)N3CCCC3)o2)cc1S(=O)(=O)N1CCN(C)CC1,607
10,Cc1nc(-c2cc(S(=O)(=O)NCc3ccc(OC(C)C)cc3)c(C)s2)sc1C,1150
11,O=C(c1ccc(-c2csc(C3CC3)n2)cc1)N1CCCCC1,971
12,CN(C)CCCNC(=O)Cn1c(=O)n(-c2ccc(F)cc2)c2ncccc21,577
13,Cc1cc(C)n(-c2ccc(=O)n(C(C)C(=O)NCCc3csc(-c4ccccc4)n3)n2)n1 (centres undefined),780
14,O=C(Nc1ccc2c(c1)OCO2)N(Cc1ccccn1)Cc1ccco1,628
15,CCCN1C(=O)c2cccnc2Sc2cc(C(=O)N3CCCC3)ccc21,720
16,CCCCCCNC(=O)C1CC(=O)N(CCc2c[nH]c3ccc(C)cc23)C1 (centres undefined),864
17,CCOC(=O)c1sc2nc(NC(=O)COc3ccccc3)sc2c1C,1040
18,CCCNc1cc(N2CCC(CCC(=O)NC3CC3)CC2)ncn1,588
19,Cc1cc2nc3sc(C(=O)NCCCN4CCN(C)CC4)cc(=O)n3c2cc1C,730
20,NC(=O)c1cnc(-c2ccc(Cl)cc2)n(CC(=O)N2CCCc3ccccc32)c1=O,986
21,Cn1nc(CNC(=O)C2CC(=O)N(C3CCCCC3)C2)c2c1CCN(S(C)(=O)=O)C2 (centres undefined),645
22,COc1ccccc1NC(=O)N1CCN(Cc2nc3cc(Cl)ccc3o2)CC1,771
23,Cc1sc2ccn(CC(C)C)c(=O)c2c1C(=O)NCc1ccc(F)cc1,917

row,Compound,RP-LC retention time [s]
1,CCOC(=O)c1[nH]c(C)c(C(=O)C(C)N(CC)C(=O)c2ccc(OC)cc2)c1C (centres undefined),795
2,Cc1ccc(-n2nc3c(=O)n(C(C)C(=O)NCc4ccc5c(c4)OCO5)nc(C)c3c2C)cc1 (centres undefined),878
3,Cc1cccc2nnc(N3CCC(C(=O)N4CCC(C)CC4)CC3)n12,663
4,CC(C)Cn1cc(S(=O)(=O)Nc2ccc(F)cc2Cl)c2cccnc21,1010
5,O=C(Cn1c(=O)n(C2CCCCC2)c2ncccc21)NCCCN1CCOCC1,612
6,CNC(=O)CCc1nc2ccccc2n(CC(=O)NCCCc2ccccc2)c1=O,704
7,CCCn1ccc2sc(C)c(C(=O)NCc3ccccc3OC)c2c1=O,896
8,Cc1ccsc1C(=O)Nc1cccn2nc(C3CCC3)nc12,1030
9,COc1ccc2c(c1)C1(CCN(C(=O)c3ccc(C)cc3)C1)C(=O)N2 (centres undefined),727
10,Cc1nc(S(=O)(=O)N2CCC(C(=O)N3CCN(c4ccccc4F)CC3)CC2)cn1C,719
11,Cc1c(CCC(=O)N2CCC3(O)CCCCC3C2)c(=O)oc2cc(O)ccc12 (centres undefined),652
12,Cc1cccc(OCc2nc(-c3ccc4oc(C)nc4c3)no2)c1,1180
13,Cc1ccc(C2Cn3nnc(-c4nc(-c5ccccc5F)no4)c3CO2)c(C)c1 (centres undefined),1230
14,CCCN(C)c1nccn2c(=O)n(CC(=O)Nc3ccc(F)cc3F)nc12,673
15,CCn1ccc(C(=O)Nc2ccc3c(c2)Sc2ncccc2C(=O)N3C(C)C)n1,790
16,COc1cccc(C(=O)N2CCc3c(c(-c4nc(C5CC5)no4)nn3C)C2)c1,800
17,Cc1ccc2c(c1)N(C(=O)Cn1nc3c4ccccc4ncn3c1=O)CCO2,730
18,CC1CCN(c2ccc(C(=O)NCC3CCCO3)cc2S(=O)(=O)N2CCC(C)CC2)CC1 (centres undefined),1170
19,COc1ccc(-c2nc(C)cc(C)c2CNS(=O)(=O)c2ccc(F)cc2)cc1,654
20,Cc1ccc(-n2nc(C)c(S(=O)(=O)N3CCC(C(=O)N4CCN(C)CC4)CC3)c2C)cc1,629
